From PubChem BioAssay (NCI)
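Each compound was tested at five concentrations against cells in 96-well plates for 48 hours. The concentration for 50% growth inhibition is given as GI50. Definition used: TGI = concentration required for complete inhibition of growth.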

How the values were obtained:
Assay in all cases: NCI-60 cell line screen, 48 h
[1] = tested on: HCC-2998 colon
[2] = tested on: SF-268 CNS
[3] = tested on: HOP-92 NSCLC
[4] = tested on: NCI-H460 lung
[5] = tested on: KM12 colon
[6] = tested on: A549 NSCLC
[7] = tested on: OVCAR-8 ovarian
[8] = tested on: TK-10 renal
[9] = tested on: CAKI-1 renal
[10] = tested on: A498 renal
[11] = tested on: RXF 393 renal
[12] = tested on: SF-295 CNS
[13] = tested on: K-562 leukemia
[14] = tested on: MCF7 breast
[15] = tested on: HL-60(TB) leukemia
[16] = tested on: RPMI-8226 leukemia
[17] = tested on: NCI-H23 lung
[18] = tested on: ACHN renal
[19] = tested on: SR leukemia
[20] = tested on: HOP-62 NSCLC
[21] = tested on: SF-539 CNS
[22] = tested on: HT29 colon
[23] = tested on: M14 melanoma
[24] = tested on: SK-OV-3 ovarian
[25] = tested on: SK-MEL-5 melanoma
[26] = tested on: HS 578T breast
[27] = tested on: PC-3 prostate
[28] = tested on: NCI/ADR-RES ovarian
[29] = tested on: NCI-H522 lung
[30] = tested on: CCRF-CEM leukemia
[31] = tested on: SNB-19 CNS
[32] = tested on: MDA-MB-231 breast
[33] = tested on: 786-0 renal
[34] = tested on: MALME-3M melanoma
[35] = tested on: U251 CNS
[36] = tested on: BT-549 breast
[37] = tested on: SW-620 colon
[38] = tested on: UACC-62 melanoma
[39] = tested on: SN12C renal
[40] = tested on: NCI-H226 lung
[41] = tested on: UACC-257 melanoma
[42] = tested on: HCT-15 colon
[43] = tested on: SK-MEL-2 melanoma
[44] = tested on: IGROV1 ovarian
[45] = tested on: HCT-116 colon
[46] = tested on: OVCAR-5 ovarian
[47] = tested on: LOX IMVI melanoma
[48] = tested on: MDA-MB-435
[49] = tested on: UO-31 renal
[50] = tested on: T-47D breast
[51] = tested on: SNB-75 CNS
[52] = tested on: OVCAR-4 ovarian
[53] = tested on: MOLT-4 leukemia
[54] = tested on: SK-MEL-28 melanoma
[55] = tested on: OVCAR-3 ovarian
[56] = tested on: COLO 205 colon
[57] = tested on: DU-145 prostate

**Q.** Which results are given for `O=C(Nc1cccc(-n2cc(-c3ccncc3)c(-c3ccc(Cl)c(O)c3)n2)c1)Nc1cccc(C(F)(F)F)c1`?
**A.** GI50 [1]: 7.26 µM; TGI [1]: > 32.5 µM; GI50 [2]: 1.95 µM; TGI [2]: 15.8 µM; GI50 [3]: 0.509 µM; TGI [3]: 2.23 µM; GI50 [4]: 1.18 µM; TGI [4]: 29 µM; GI50 [5]: 1.33 µM; TGI [5]: > 32.5 µM; GI50 [6]: 1.37 µM; TGI [6]: > 32.5 µM; GI50 [7]: 1.57 µM; TGI [7]: > 32.5 µM; GI50 [8]: 2.12 µM; TGI [8]: > 32.5 µM; GI50 [9]: 1.75 µM; TGI [9]: > 32.5 µM; GI50 [10]: 2.24 µM; TGI [10]: > 32.5 µM; GI50 [11]: 3.02 µM; TGI [11]: 12 µM; GI50 [12]: 0.962 µM; TGI [12]: 4.26 µM; GI50 [13]: 1.44 µM; TGI [13]: > 32.5 µM; GI50 [14]: 1.34 µM; TGI [14]: > 32.5 µM; GI50 [15]: 1.45 µM; TGI [15]: > 32.5 µM; GI50 [16]: 1.34 µM; TGI [16]: > 32.5 µM; GI50 [17]: 1.9 µM; TGI [17]: > 32.5 µM; GI50 [18]: 1.29 µM; TGI [18]: > 32.5 µM; GI50 [19]: 1.82 µM; TGI [19]: 20 µM; GI50 [20]: 6.86 µM; TGI [20]: > 32.5 µM; GI50 [21]: 3.54 µM; TGI [21]: 11.6 µM; GI50 [22]: 9.82 µM; TGI [22]: > 32.5 µM; GI50 [23]: 1.4 µM; TGI [23]: 10.8 µM; GI50 [24]: 4.97 µM; TGI [24]: > 32.5 µM; GI50 [25]: 1.3 µM; TGI [25]: 4.71 µM; GI50 [26]: 3.31 µM; TGI [26]: > 32.5 µM; GI50 [27]: 0.948 µM; TGI [27]: 22.4 µM; GI50 [28]: 2.14 µM; TGI [28]: > 32.5 µM; GI50 [29]: 1.46 µM; TGI [29]: 14.5 µM; GI50 [30]: 1.4 µM; TGI [30]: > 32.5 µM; GI50 [31]: 1.91 µM; TGI [31]: > 32.5 µM; GI50 [32]: 3.59 µM; TGI [32]: 26.8 µM; GI50 [33]: 4.69 µM; TGI [33]: > 32.5 µM; GI50 [34]: 1.81 µM; TGI [34]: 20.1 µM; GI50 [35]: 1.59 µM; TGI [35]: 7.65 µM; GI50 [36]: 6.51 µM; TGI [36]: 21.4 µM; GI50 [37]: 3.82 µM; TGI [37]: > 32.5 µM; GI50 [38]: 1.65 µM; TGI [38]: 6.91 µM; GI50 [39]: 2.01 µM; TGI [39]: > 32.5 µM; GI50 [40]: 7.35 µM; TGI [40]: > 32.5 µM; GI50 [41]: 4.34 µM; TGI [41]: 19.1 µM; GI50 [42]: 1.51 µM; TGI [42]: > 32.5 µM; GI50 [43]: 2.02 µM; TGI [43]: 10.8 µM; GI50 [44]: 1.64 µM; TGI [44]: > 32.5 µM; GI50 [45]: 1.39 µM; TGI [45]: 8.26 µM; GI50 [46]: 13.7 µM; TGI [46]: > 32.5 µM; GI50 [47]: 2.53 µM; TGI [47]: 9.58 µM; GI50 [48]: 1.49 µM; TGI [48]: 12.6 µM; GI50 [49]: 1.86 µM; TGI [49]: > 32.5 µM; GI50 [50]: 2.47 µM; TGI [50]: > 32.5 µM; GI50 [51]: 3.65 µM; TGI [51]: > 32.5 µM; GI50 [52]: 3.18 µM; TGI [52]: > 32.5 µM; GI50 [53]: 1.92 µM; TGI [53]: > 32.5 µM; GI50 [54]: 4.11 µM; TGI [54]: > 32.5 µM; GI50 [55]: 1.06 µM; TGI [55]: 6.13 µM; GI50 [56]: 7.9 µM; TGI [56]: 23.8 µM; GI50 [57]: 1.76 µM; TGI [57]: > 32.5 µM
